Results reported in ChEMBL document CHEMBL5604063, “ASAP - DENV-2 NS2B-NS3 protease fluorescence dose response” (2024).
“And” between values parts separate entries of the source, which are not always exact repeats. Equal values may be shown once.

Tests used:
Genome polyprotein [1] = target: T1, Genome polyprotein (dengue virus type 2, UniProt P29990); assay type: functional, Thailand/16681/1984
Genome polyprotein [2] = target: T1, Genome polyprotein; assay type: functional, Thailand/16681/1984; remark: listed apart in the source

T1 sequence (P29990 1346-1475 limits assumed): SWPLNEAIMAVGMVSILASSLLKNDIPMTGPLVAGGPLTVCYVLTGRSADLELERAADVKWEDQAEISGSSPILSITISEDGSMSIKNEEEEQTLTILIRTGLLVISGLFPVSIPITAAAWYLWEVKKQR
T1 sequence (P29990 1476-2093 limits assumed): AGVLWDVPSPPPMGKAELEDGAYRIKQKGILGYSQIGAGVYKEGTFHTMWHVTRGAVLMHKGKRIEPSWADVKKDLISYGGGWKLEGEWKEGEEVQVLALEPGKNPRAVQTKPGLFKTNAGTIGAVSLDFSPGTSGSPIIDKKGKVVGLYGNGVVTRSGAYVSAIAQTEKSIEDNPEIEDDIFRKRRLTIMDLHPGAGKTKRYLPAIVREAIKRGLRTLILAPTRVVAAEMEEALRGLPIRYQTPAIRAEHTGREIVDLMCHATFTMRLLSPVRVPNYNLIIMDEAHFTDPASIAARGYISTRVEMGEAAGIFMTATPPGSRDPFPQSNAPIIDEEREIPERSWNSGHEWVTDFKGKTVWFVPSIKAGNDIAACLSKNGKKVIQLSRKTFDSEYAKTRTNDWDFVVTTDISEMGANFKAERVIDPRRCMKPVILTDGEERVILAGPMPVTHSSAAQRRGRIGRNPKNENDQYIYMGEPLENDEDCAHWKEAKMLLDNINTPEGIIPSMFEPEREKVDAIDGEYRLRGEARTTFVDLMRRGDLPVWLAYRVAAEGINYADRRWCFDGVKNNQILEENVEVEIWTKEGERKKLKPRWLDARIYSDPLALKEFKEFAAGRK

Row | Compound | IC50 (Genome polyprotein [1]) [µM] | IC50 (Genome polyprotein [2])
1 | C[C@H](CC(=O)O)N(C)C(=O)c1cc(Cl)cc(NC(=O)OCc2ccccc2)c1 | > 99.5 | > 100 µM
2 | Clc1ccc2[nH]cc(Cc3ccc(-c4nn[nH]n4)cc3)c2c1 | 58.7 | 16.4 µM
3 | C[C@H](CC(=O)O)NC(=O)c1cc(Cl)cc(NC(=O)OCc2ccccc2)c1 | > 99.5 | > 100 µM
4 | CCc1sc(C(=O)Nc2cccc(-c3nnn[nH]3)c2)cc1C | > 99.5 | > 100 µM
5 | O=C(O)CCc1ccc(NC(=O)c2cc(Cl)cc(C3CC3)c2)cc1 | > 99.5 | > 100 µM
6 | CC(C)C[C@H](NC(=O)c1cc(Cl)cc(NC(=O)OCc2ccccc2)c1)c1nnn[nH]1 | 74.6 | 28.3 µM
7 | O=C(Nc1cc(Cl)cc(C(=O)Nc2ccccc2[C@@H]2C[C@H]2C(=O)O)c1)OCc1ccccc1 | > 99.5 | > 100 µM
8 | NCc1cc(C(=O)N[C@H]2CCCOC2)cc([C@@H]2C[C@H]2c2cc(Cl)cc(NC(=O)OCc3ccccc3)c2)c1 | > 99.5 | > 100 µM
9 | O=C(Nc1cc(Cl)cc(C(=O)NC[C@H]2C[C@@H]2C(=O)O)c1)OCc1ccccc1 | > 99.5 | > 100 µM
10 | O=C(Nc1cc(Cl)cc(C(=O)NCc2ccc(-c3nnn[nH]3)cc2)c1)OCc1ccccc1 | 21 | 11.7 µM and 9.92 µM
11 | CC(C)(C)NC(=O)[C@H](Nc1cccc(-c2nn[nH]n2)c1)c1cc(Cl)cc(NC(=O)OCc2ccccc2)c1 | 11.3 | 7.15 µM and 7.59 µM
12 | O=C(Nc1cc(Cl)cc(C(=O)N2CCC[C@H]2c2nnn[nH]2)c1)OCc1ccccc1 | > 99.5 | > 100 µM
13 | C=CC[C@H](Nc1ccc(-c2nn[nH]n2)cc1)c1cc(Cl)cc(NC(=O)OCc2ccccc2)c1 | 6.6 | 5.41 µM and 5.49 µM
14 | NCc1cc(C(=O)N2CCNC(=O)C2)cc([C@@H]2C[C@H]2c2cc(Cl)cc(NC(=O)OCc3ccccc3)c2)c1 | 49.1 | > 100 µM
15 | O=C(O)c1cccc(NC(=O)c2cc(Cl)cc3[nH]ncc23)c1 | > 99.5 | > 100 µM
16 | O=C(Nc1cc(Cl)cc([C@H]2CN(Cc3ccccc3)C[C@@H]2c2cccc(-c3nn[nH]n3)c2)c1)OCc1ccccc1 | 6.12 | 5.87 µM and 5.96 µM
17 | CCCNC(=O)[C@H](Nc1cccc(-c2nn[nH]n2)c1)c1cc(Cl)cc(NC(=O)OCc2ccccc2)c1 | 17.3 | 9.41 µM and 9.81 µM
18 | CC(C)NC(=O)[C@H](Nc1cccc(-c2nn[nH]n2)c1)c1cc(Cl)cc(NC(=O)OCc2ccccc2)c1 | 21.5 | 12.2 µM
19 | O=C(Nc1cc(Cl)cc(C(=O)N2CCC(c3nn[nH]n3)CC2)c1)OCc1ccccc1 | > 99.5 | > 100 µM
20 | CS(=O)(=O)c1cc(CN)cc([C@@H]2C[C@H]2c2cc(Cl)cc(NC(=O)OCc3ccccc3)c2)c1 | > 99.5 | > 100 µM
21 | CCc1[nH]c(-c2ccccc2)cc1C(=O)Nc1cccc(-c2nnn[nH]2)c1 | > 99.5 | 33.1 µM
22 | CN(C)C(=O)c1cc(CN)cc([C@@H]2C[C@H]2c2cc(Cl)cc(NC(=O)OCc3ccccc3)c2)c1 | 31.6 | > 100 µM
23 | CS(=O)(=O)NC(=O)c1cc(CN)cc(NC(=O)c2cc(Cl)cc(NC(=O)OCc3ccccc3)c2)c1 | > 99.5 | > 100 µM
24 | CC(=Cc1cc(Cl)cc(NC(=O)OCc2ccccc2)c1)c1cccc(CN)c1 | 23.4 | > 100 µM
25 | C#C[C@H](Nc1cccc(C(=O)O)c1)c1cc(Cl)cc2[nH]ncc12 | > 99.5 | > 100 µM

Row | Compound | IC50 (Genome polyprotein [1]) [µM] | IC50 (Genome polyprotein [2])
26 | CCc1cc(C(=O)Nc2cccc(-c3nnn[nH]3)c2)ccc1Cl | > 99.5 | 67.2 µM
27 | C[C@H](NC(=O)c1cc(Cl)cc(NC(=O)OCc2ccccc2)c1)C(=O)O | > 99.5 | > 100 µM
28 | O=C(Nc1ccc(-n2nn[nH]c2=O)cc1)c1cc(Cl)cc(C2CC2)c1 | > 99.5 | 62.2 µM
29 | Cc1c(C(=O)Nc2cccc(-c3nnn[nH]3)c2)n[nH]c1-c1ccc(Cl)cc1 | 42 | 18.2 µM
30 | COC[C@H](NC(=O)c1cc(Cl)cc(NC(=O)OCc2ccccc2)c1)c1nnn[nH]1 | > 99.5 | > 100 µM
31 | CC(C)[C@H](NC(=O)c1cc(Cl)cc(NC(=O)OCc2ccccc2)c1)C(=O)O | > 99.5 | > 100 µM
32 | CNC(=O)[C@H](Nc1ccc(-c2nnn[nH]2)cc1)c1cc(Cl)cc(C2CC2)c1 | > 99.5 | > 100 µM
33 | O=C(Nc1cc(Cl)cc(C(=O)N2CCC[C@H](c3nnn[nH]3)C2)c1)OCc1ccccc1 | > 99.5 | > 100 µM
34 | O=C(Nc1cc(Cl)cc([C@H](Nc2cccc(-c3nn[nH]n3)c2)C(=O)NCc2ccccc2)c1)OCc1ccccc1 | 8.05 | 7.11 µM and 6.42 µM
35 | C=CC[C@H](Nc1cc(Cl)cc(NC(=O)OCc2ccccc2)c1)c1cccc(CN)c1 | 37.5 | > 100 µM
36 | O=C(Nc1cccc(-c2nnn[nH]2)c1)c1ccc(-c2cccnc2)s1 | > 99.5 | > 100 µM
37 | CCOC(=O)[C@H]1[C@H](c2cc(Cl)cc(NC(=O)OCc3ccccc3)c2)[C@H]1c1cccc(-c2nnn[nH]2)c1 | 13.1 | 13.9 µM
38 | O=C(Nc1cc(Cl)cc(C(=O)Nc2cccc3c2OC[C@H](C(=O)O)C3)c1)OCc1ccccc1 | 50.4 | 19.1 µM
39 | NCc1cc(C(=O)N2CCOCC2)cc([C@@H]2C[C@H]2c2cc(Cl)cc(NC(=O)OCc3ccccc3)c2)c1 | 44.5 | > 100 µM
40 | NCc1cc(/C=C/C(=O)O)cc(NC(=O)c2cc(Cl)cc(NC(=O)OCc3ccccc3)c2)c1 | 94.6 | > 100 µM
41 | CCOC(=O)[C@H]1[C@H](c2cccc(CN)c2)[C@H]1c1cc(Cl)cc(NC(=O)OCc2ccccc2)c1 | > 99.5 | > 100 µM
42 | C=CC[C@H](Nc1cccc(C(=O)O)c1)c1cc(Cl)cc2[nH]ncc12 | > 99.5 | > 100 µM
43 | Clc1ccc2[nH]cc(Cc3cccc(-c4nn[nH]n4)c3)c2c1 | 63.1 | 22.4 µM
44 | C=CC[C@H](Nc1cc(Cl)cc(NC(=O)OCc2ccccc2)c1)c1ccc(-c2nn[nH]n2)cc1 | 7.02 | 5.69 µM and 5.81 µM
45 | CC(C)CNC(=O)[C@H](Nc1cccc(-c2nn[nH]n2)c1)c1cc(Cl)cc(NC(=O)OCc2ccccc2)c1 | 12.7 | 9.91 µM and 9.02 µM
46 | O=C(Nc1cc(Cl)cc([C@H](Nc2cccc(-c3nn[nH]n3)c2)C(=O)N[C@H]2CCOC2)c1)OCc1ccccc1 | 40.3 | 22.9 µM
47 | CCCn1cc(-c2cc(Cl)cc(NC(=O)OCc3ccccc3)c2)c(C(=O)O)n1 | > 99.5 | > 100 µM
48 | O=C(Nc1cccc(-n2nn[nH]c2=O)c1)c1cc(Cl)cc(C2CC2)c1 | 98.7 | 50.1 µM
49 | CCCc1sc(C(=O)Nc2cccc(-c3nnn[nH]3)c2)cc1CC | 45.8 | 19 µM and 20.6 µM
50 | O=C(Nc1cc(Cl)cc([C@H](Nc2cccc(-c3nn[nH]n3)c2)C(=O)NC[C@H]2CCCO2)c1)OCc1ccccc1 | 33.7 | 17.6 µM

Row | Compound | IC50 (Genome polyprotein [1]) [µM] | IC50 (Genome polyprotein [2])
51 | NCc1cc(CO)cc([C@H]2C[C@@H]2c2cc(Cl)cc(NC(=O)OCc3ccccc3)c2)c1 | 29.7 | > 100 µM
52 | O=C(Nc1cc(Cl)cc(-c2ccn3c(C(=O)O)cnc3c2)c1)OCc1ccccc1 | > 99.5 | 13.6 µM
53 | O=C(Nc1cc(Cl)cc(-c2ccc3[nH]nc(C(=O)O)c3c2)c1)OCc1ccccc1 | 9.15 | 6.27 µM and 5 µM
54 | O=C(O)Cn1ncc2cc(-c3cc(Cl)cc(NC(=O)OCc4ccccc4)c3)ccc21 | 20.8 | 10.7 µM and 11 µM
55 | OCC#C[C@H](Nc1ccc(-c2nnn[nH]2)cc1)c1cc(Cl)cc(C2CC2)c1 | > 99.5 | 40.8 µM
56 | O=C(Nc1cc(Cl)cc(-c2ccc3cc(C(=O)O)[nH]c3c2)c1)OCc1ccccc1 | 7.42 | 7.4 µM and 4.18 µM
57 | O=C(Nc1cc(Cl)cc(-c2ccc3nc(C(=O)O)ncc3c2)c1)OCc1ccccc1 | 11.4 | 11.6 µM and 12.4 µM
58 | NCc1ccc(C(=O)O)c(NC(=O)c2cc(Cl)cc(NC(=O)OCc3ccccc3)c2)c1 | > 99.5 | > 100 µM
59 | CC(C)CNC(=O)[C@H](Nc1cccc(-c2nnn[nH]2)c1)c1cc(Cl)cc(C2CC2)c1 | 74.4 | 47.3 µM
60 | O=C(Nc1cc(Cl)cc(C(=O)NC2(c3nnn[nH]3)CC2)c1)OCc1ccccc1 | > 99.5 | > 100 µM
61 | CC(=Cc1cccc(CN)c1)c1cc(Cl)cc(NC(=O)OCc2ccccc2)c1 | 63.2 | > 100 µM
62 | O=C(Nc1cc(Cl)cc(-c2cnn3ccc(C(=O)O)cc23)c1)OCc1ccccc1 | > 99.5 | > 100 µM
63 | Clc1cccc([C@H](C#Cc2ccccc2)Nc2cccc(-c3nn[nH]n3)c2)c1 | 7.71 | 6.31 µM and 4.12 µM
64 | CS(=O)(=O)NC(=O)c1cc(CN)cc([C@@H]2C[C@H]2c2cc(Cl)cc(NC(=O)OCc3ccccc3)c2)c1 | > 99.5 | > 100 µM
65 | O=C(Nc1cc(Cl)cc(C(=O)Nc2cc(C(=O)O)ccn2)c1)OCc1ccccc1 | > 99.5 | 35.6 µM
66 | CNC(=O)[C@H](Nc1cc(Cl)cc(NC(=O)OCc2ccccc2)c1)c1ccc(-c2nn[nH]n2)cc1 | 45.6 | 19.2 µM
67 | COCCNC(=O)[C@H](Nc1cccc(-c2nn[nH]n2)c1)c1cc(Cl)cc(NC(=O)OCc2ccccc2)c1 | 59.8 | 28 µM
68 | CC(=Cc1cccc(-c2nnn[nH]2)c1)c1cc(Cl)cc(NC(=O)OCc2ccccc2)c1 | 9.44 | 8.82 µM and 11.8 µM
69 | CCc1cc(C(=O)Nc2cccc(-c3nnn[nH]3)c2)sc1C | > 99.5 | > 100 µM
70 | O=C(Nc1cc(Cl)cc(-c2cccc3c(C(=O)O)cccc23)c1)OCc1ccccc1 | 9.78 | 7.51 µM
71 | NCc1cc(Br)cc([C@H]2C[C@@H]2c2cc(Cl)cc(NC(=O)OCc3ccccc3)c2)c1 | 16.1 | 33.5 µM
72 | CNC(=O)[C@H](Nc1cccc(-c2nnn[nH]2)c1)c1cc(Cl)cc(C2CC2)c1 | > 99.5 | > 100 µM
73 | O=C(Nc1cc(Cl)cc(N[C@H](C#CCO)c2ccc(-c3nn[nH]n3)cc2)c1)OCc1ccccc1 | 26.4 | 11.7 µM
74 | CNC(=O)[C@H](Nc1ccc(-c2nn[nH]n2)cc1)c1cc(Cl)cc(NC(=O)OCc2ccccc2)c1 | 50 | 40.7 µM
